# Laboratory results taken from patent publication US20110052678A1, “METHOD FOR TREATING AGE RELATED MACULAR DEGENERATION” (priority 2010, published 2011).
# Legend:
# patients [1] = assay: Clinical use of MSM ophthalmic drops by the inventor; format: in vivo, human
# Text: We have used aqueous solutions of MSM filtered, sterilized, and mixed with insulin.
# [2] = water; cited from earlier work
# photoreceptor cell = conditions: in vitro model; cited from earlier work
# [3] = in vivo; cited from earlier work
# [4] = local application incl. conjunctival sac, scalp, gums, wounds
# Text: The present invention formulations contain only 0.10 to 1.00 IU per drop which the dosage can be increased or the dosage can be decreased depending upon the disease states.
# oxidized cells = conditions: H2O2 induced, insulin pretreatment; cited from earlier work
# [5] = system: dry mouth and dry eyes conditions; assay: Clinical use of ADT orally and as eye drops; format: in vivo; conditions: 25 mg orally and nanograms concentration in eye drops
# Experimental: We have used ADT 25 mg orally and ADT in nanograms concentration in liquid ophthalmic eye drops with success in these conditions, especially, those on chemotherapy, menopausal women, and chronic smokers with dry mouth and dry eyes conditions. There is secretory dysfunction associated with RPE and Muller cells which are needed for proper functioning of the photoreceptors by removing ROS. This can be one of the important non toxic oral and eye drops for the treatment of age related macular degeneration (Ben-Mandi M H, Gozin A, Driss F, Andrieu V, Christen M O, Pasquier C. Anethole dithiolethione regulates oxidant-induced tyrosine kinase activation in endothelial cells. Antioxid Redox Signal. 2000 Winter, 2 (4):789-99). […] (Han S F, Yao T T, Zhang X X, Gan L, Zhu C, Yu H Z, Gan Y. Int J Pharm. Lipid-based formulations to enhance oral bioavailability of the poorly water-soluble drug anetholtrithione: effects of lipid composition and formulation. 2009 Sep. 8; 379(1):18-24. Epub 2009 Jun. 7.).
# [6] = system: individuals with macular edema; conditions: fluorescein angiography; cited from earlier work
# [7] = system: patients with neovascular ARMS; conditions: intravitreous 1.25 mg injections; cited from earlier work
# patients [8] = conditions: supplementation; cited from earlier work
# [9] = after oral intake; cited from earlier work
# [10] = cited from earlier work
compound,measurement,setting,value
"CS(C)(=O)=O [MSM, Methylsulfonylmethane]",treatment outcome,"patients [1]; aqueous MSM mixed with insulin as eye drops, ARMD, retinitis pigmentosa, cataract, dry eye, glaucoma",good results
same,patient-reported vision,"patients [1]; ophthalmic drops, aged, Lyme disease and cancer patients",their vision had improved
same,solubility,[2],soluble in water
brimonidine tartrate,photoreceptor cell degeneration,photoreceptor cell,prevent photoreceptor cell degeneration
Insulin detemir,Peak action in hours,[3],6 to 8 h
insulin,change of blood sugar levels (hypoglycemic effect),[4],did not change the blood sugar levels
same,lipid peroxidation,oxidized cells,significantly inhibited
anethole dithiolethione [ADT],treatment outcome,[5],success
CC(=O)Nc1nnc(S(N)(=O)=O)s1 [acetazolamide],leakage of dye into the photoreceptor area,[6],inhibited
bevacizumab,patients improved 10 or more letters,[7],more than 45%
Regular (soluble): short-acting regular (soluble) insulin,Peak action in hours,[3],2 to 3 h
Vitamin A,postponement of blindness,patients [8],~10 years
same,time to peak blood concentration,[9],one
NPH (isophane): intermediate-acting NPH (isophane) insulin,Peak action in hours,[3],6 to 10 h
Insulin glargine,Peak action in hours,[3],8 to 16 h
hyaluronic acid,pH,[10]; 0.1% solution,6.0-7.5
same,water contained relative to own weight,[10]; hydrated,"up to 1,000 fold"
